These results are taken from ChEMBL document CHEMBL1152679, “The lifespan-promoting effect of acetic acid and Reishi polysaccharide” (2009).

Molecules are shown by their SMILES. Activity calls are given as the source filed them. The rule behind the calls is not given here.

This experiment has as its system Caenorhabditis elegans. In words: Longevity-promoting activity in wild type Caenorhabditis elegans N2 assessed as increase in lifespan at 50 ppm by microscopic analysis. The class given is functional, organism-based.
Regarding `O=C(O)c1ccccc1`, the outcome was inactive.

Regarding `O=C(O)CC(O)(CC(=O)O)C(=O)O`, the outcome was inactive.

For `CC(=O)O`, the result was Active.
